Measured values from patent US12551463B2, “Dosing of a Bruton's tyrosine kinase inhibitor” (Loxo Oncology, Inc., priority 2019, dated 2026).
“Also recorded” adds a separate entry of the source. Like-named read-outs stand apart in the source and are kept apart here. Marks after values point to notes of the source that are not given here.

What was measured:
BTK C481S mutant = molecular target: T1, BTK C481S mutant (Homo sapiens, UniProt Q06187, C481S); assay: BTK Y223 autophosphorylation in HEK293 cells expressing BTK C481S mutant; format: cell-based
T1 construct: expressed in transfected cells
T1 sequence (Q06187 whole entry C481S): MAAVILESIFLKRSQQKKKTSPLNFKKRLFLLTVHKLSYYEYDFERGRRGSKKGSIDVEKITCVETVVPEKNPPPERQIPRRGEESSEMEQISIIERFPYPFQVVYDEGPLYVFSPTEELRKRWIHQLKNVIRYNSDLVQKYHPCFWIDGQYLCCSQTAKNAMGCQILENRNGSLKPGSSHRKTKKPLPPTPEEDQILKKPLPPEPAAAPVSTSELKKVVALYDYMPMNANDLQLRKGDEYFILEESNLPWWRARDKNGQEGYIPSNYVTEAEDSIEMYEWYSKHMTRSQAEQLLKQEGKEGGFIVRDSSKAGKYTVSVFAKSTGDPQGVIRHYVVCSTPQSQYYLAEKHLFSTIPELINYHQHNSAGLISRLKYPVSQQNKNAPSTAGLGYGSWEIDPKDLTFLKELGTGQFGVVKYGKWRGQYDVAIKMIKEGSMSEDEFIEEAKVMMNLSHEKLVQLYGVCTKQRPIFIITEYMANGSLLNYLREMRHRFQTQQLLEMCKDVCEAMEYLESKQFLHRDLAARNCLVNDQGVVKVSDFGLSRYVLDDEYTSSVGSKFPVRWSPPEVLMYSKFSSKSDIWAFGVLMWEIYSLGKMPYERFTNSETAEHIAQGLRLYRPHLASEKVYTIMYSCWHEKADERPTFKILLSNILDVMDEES
Method: HEK293 cell lines stably expressing BTK wild type and the mutant form C481S are generated using standard transfection methods. For assessment of cellular inhibition potency, cells are grown in DMEM+10% FBS+1 μg/mL puromycin (complete growth media) at 37° C. in a C02 incubator. Cells are harvested according to standard protocols using TrypLE (Gibco #12604-013), counted, resuspended in complete growth media, and added to 6 well assay plates at […] in 2 mL. Plates are incubated overnight at 37° C. with 5% C02. The following day, cells are treated for 2 hours with BTK-I, prepared as a 6-point dose curve, 1:3 dilution series with final concentrations starting at a maximum concentration of 300 nM and a constant DMSO concentration of 0.5% (v/v). Control wells contain 0.5% (v/v) DMSO alone (no inhibition control). […] Supernatants are quantified by BCA (Pierce #23225) and stored at −80° C. Samples are analyzed by Simple Western (Protein Simple) with anti-phospho-BTK (Y223) (Cell signaling technologies (cst) #5082) and anti-BTK (cst #8547). β-actin is the used as a loading control and detected by regular Western blot with an anti-β-actin antibody (cst #4970). Simple Western results are analyzed with Compass software (Protein Simple). BTK Y223 phosphorylation signal is normalized to total BTK, and IC50 values are calculated using a 4-parameter fit in GraphPad Prism 7.04 software.

[1] = Phase 1/2 clinical study: pharmacokinetics in cancer patients; format: in vivo, human; conditions: for half-life: read-out: T1/2 Geo mean (% CV) (converted); for Cmax: read-out: Cmax Geo mean (% CV); for Tmax: read-out: Tmax Median (min, max)
Source text: The study is an open-label, multi-center study of oral BTK-I to evaluate safety and efficacy as monotherapy and as part of combination therapy in patients with CLL/SLL and NHL who have failed or are intolerant to standard of care. This study includes monotherapy as well as combination treatment parts. The monotherapy part includes Phase 1 dose escalation and dose expansion as well as Phase 2. The combination therapy part is a Phase 1b (safety assessment and expansion) of BTK-I in combination with venetoclax, with or without anti-CD20 therapy. Phase 1 dose escalation will proceed prior to start of Phase 1b or Phase 2. Once a recommended Phase 2 dose (RP2D) is identified in Phase 1, enrollment can commence to the Phase 1b combination therapies and Phase 2 monotherapy cohorts.
BTK-I is administered in oral tablet form. Dose escalation will follow a 3+3 design starting with a 25 mg QD dose (followed by 50 mg QD (dose level cohort 2), 100 mg QD (dose level cohort 3), 150 mg QD (dose level cohort 4), 200 mg QD (dose level cohort 5), 250 mg QD (dose level cohort 6), and 300 mg QD (dose level cohort 7)). Cycle length will be 28 days. The drug limiting toxicity (DLT) period will be 28 days, commencing with the first dose of BTK-I.
The pharmacokinetic profiles and adverse events for BTK-I doses are summarized in the below tables.
Pharmacokinetic Parameters of BTK-I—in Cancer Patients at Steady State (Cycle 1 Day 8)

[2] = human, plasma, oral, 25 mg QD, steady state (Cycle 1 Day 8), N=5
[3] = human, plasma, oral, 25 mg, read-out: Mean patient plasma CONC (SD)
[4] = human, plasma, oral, 50 mg QD, steady state (Cycle 1 Day 8), N=6
[5] = human, plasma, oral, 50 mg, read-out: Mean patient plasma CONC (SD)

COc1ccc(F)cc1C(=O)NCc1ccc(-c2nn([C@@H](C)C(F)(F)F)c(N)c2C(N)=O)cc1 [BTK-I, (S)-5-amino-3-(4-((5-fluoro-2-methoxybenzamido)methyl)phenyl)-1-(1,1,1-trifluoropropane-2-yl)-1H-pyrazole-4-carboxamide]
IC90 (BTK C481S mutant; read-out: IC90): 79.2 nM
IC90 (BTK C481S mutant; read-out: IC90 translated to total drug in human plasma): 0.824 µg/mL
Ratio AUC0-8 Day 8/Day 1 Geo mean (% CV) ([1]; 25 mg QD (N = 5)): 1.44 (23.0%)
CL/F Geo mean (% CV) ([1]; 25 mg QD, steady state (Cycle 1 Day 8), N = 4, % CV 69.6%): 1.55^a (69.6%) L/h
dose dependence of exposure (Cmax and AUC) ([1]; 25 mg to 300 mg daily): dose-5 dependent and linear increases in BTK-I exposure; also recorded: linear dose-proportional exposures
interpatient variability of exposure ([1]; 25 mg to 300 mg daily): low interpatient variability
Ratio AUC0-8 Day 8/Day 1 Geo mean (% CV) ([1]; 50 mg QD (N = 6)): 1.51 (25.9%)
CL/F Geo mean (% CV) ([1]; 50 mg QD, steady state (Cycle 1 Day 8), N = 5, % CV 36.7%): 2.62^b (36.7%) L/h
Ratio AUC0-8 Day 8/Day 1 Geo mean (% CV) ([1]; 100 mg QD (N = 9)): 1.88 (42.8%)
CL/F Geo mean (% CV) ([1]; 100 mg QD, steady state (Cycle 1 Day 8), N = 8, % CV 63.0%): 0.968^c (63.0%) L/h
Ratio AUC0-8 Day 8/Day 1 Geo mean (% CV) ([1]; 150 mg QD (N = 20)): 1.74 (24.9%)
T1/2 Geo mean (% CV) ([1]; 150 mg QD, steady state (Cycle 1 Day 8), N = 18, % CV 51.8%): 18.l^d (51.8%)
CL/F Geo mean (% CV) ([1]; 150 mg QD, steady state (Cycle 1 Day 8), N = 18, % CV 66.7%): 1.36^d (66.7%) L/h
trough steady-state exposure relative to BTK IC96 ([1]; 200 mg QD): BTK IC96 target coverage
Ratio AUC0-8 Day 8/Day 1 Geo mean (% CV) ([1]; 200 mg QD, N = 73, % CV 29.6%): 1.69^h (29.6%)^
CL/F Geo mean (% CV) ([1]; 200 mg QD, steady state (Cycle 1 Day 8), N = 64, % CV 61.8%): 1.14^e (61.8%) L/h
Ratio AUC0-8 Day 8/Day 1 Geo mean (% CV) ([1]; 250 mg QD (N = 25)): 1.68 (24.5%)
CL/F Geo mean (% CV) ([1]; 250 mg QD, steady state (Cycle 1 Day 8), N = 21, % CV 1.08%): 1.26^f (1.08%) L/h
Cmax Geo mean (% CV) ([1]; 250 mg QD, steady state (Cycle 1 Day 8), N=25): 8100 (28.1%) ng/mL
Ratio AUC0-8 Day 8/Day 1 Geo mean (% CV) ([1]; 300 mg QD, N=17): 2.15 (31.2%)
CL/F Geo mean (% CV) ([1]; 300 mg QD, steady state (Cycle 1 Day 8), N = 16, % CV 42.5%): 1.63^g (42.5%) L/h
AUC(0-t) ([1]; human, plasma, oral, 25 mg, 25 mg QD, steady state (Cycle 1 Day 8), N=5, read-out: AUC0-8 Geo mean (% CV)): 4240 ng·h/mL
AUC(0-t) ([1]; human, plasma, oral, 25 mg, 25 mg QD, steady state (Cycle 1 Day 8), N=5, read-out: AUC0-24 Geo mean (% CV)): 9800 ng·h/mL
AUC(0-t) ([1]; human, plasma, oral, 50 mg, 50 mg QD, steady state (Cycle 1 Day 8), N=6, read-out: AUC0-8 Geo mean (% CV)): 8660 ng·h/mL
AUC(0-t) ([1]; human, plasma, oral, 50 mg, 50 mg QD, steady state (Cycle 1 Day 8), N=6, read-out: AUC0-24 Geo mean (% CV)): 20100 ng·h/mL
AUC(0-t) ([1]; human, plasma, oral, 100 mg, 100 mg QD, steady state (Cycle 1 Day 8), N=9, read-out: AUC0-8 Geo mean (% CV)): 22000 ng·h/mL
AUC(0-t) ([1]; human, plasma, oral, 100 mg, 100 mg QD, steady state (Cycle 1 Day 8), N=9, read-out: AUC0-24 Geo mean (% CV)): 52400 ng·h/mL
AUC(0-t) ([1]; human, plasma, oral, 150 mg, 150 mg QD, steady state (Cycle 1 Day 8), N=20, read-out: AUC0-8 Geo mean (% CV)): 28000 ng·h/mL
AUC(0-t) ([1]; human, plasma, oral, 150 mg, 150 mg QD, steady state (Cycle 1 Day 8), N=20, read-out: AUC0-24 Geo mean (% CV)): 64400 ng·h/mL
AUC(0-t) ([1]; human, plasma, oral, 200 mg, 200 mg QD, steady state (Cycle 1 Day 8), N=99, read-out: AUC0-8 Geo mean (% CV)): 36900 ng·h/mL
AUC(0-t) ([1]; human, plasma, oral, 200 mg, 200 mg QD, steady state (Cycle 1 Day 8), N=99, read-out: AUC0-24 Geo mean (% CV)): 91000 ng·h/mL
AUC(0-t) ([1]; human, plasma, oral, 250 mg, 250 mg QD, steady state (Cycle 1 Day 8), N=25, read-out: AUC0-8 Geo mean (% CV)): 49700 ng·h/mL
AUC(0-t) ([1]; human, plasma, oral, 250 mg, 250 mg QD, steady state (Cycle 1 Day 8), N=25, read-out: AUC0-24 Geo mean (% CV)): 111000 ng·h/mL
AUC(0-t) ([1]; human, plasma, oral, 300 mg, 300 mg QD, steady state (Cycle 1 Day 8), N=17, read-out: AUC0-8 Geo mean (% CV)): 65800 ng·h/mL
AUC(0-t) ([1]; human, plasma, oral, 300 mg, 300 mg QD, steady state (Cycle 1 Day 8), N=17, read-out: AUC0-24 Geo mean (% CV)): 158000 ng·h/mL
half-life ([1]; human, plasma, oral, 25 mg QD, steady state (Cycle 1 Day 8), N = 4, % CV 60.1%): 1090 min
Cmax [1, 2]: 734 ng/mL
Tmax [1, 2]: 2 h
concentration at 0 h [1, 3]: 263 ng/mL
concentration at 1 h [1, 3]: 572 ng/mL
concentration at 2 h ([1]; human, plasma, oral, 25 mg, 2 hr, read-out: Mean patient plasma CONC (SD)): 650 ng/mL
concentration at 4 h ([1]; human, plasma, oral, 25 mg, 4 hr, read-out: Mean patient plasma CONC (SD)): 538 ng/mL
concentration at 8 h ([1]; human, plasma, oral, 25 mg, 8 hr, read-out: Mean patient plasma CONC (SD)): 495 ng/mL
concentration at 24 h ([1]; human, plasma, oral, 25 mg, 24 hr (not measured, inferred based on predose), read-out: Mean patient plasma CONC (SD)): 263 ng/mL
half-life ([1]; human, plasma, oral, 50 mg QD, steady state (Cycle 1 Day 8), N = 5, % CV 39.6%): 1060 min
Cmax [1, 4]: 1420 ng/mL
Tmax [1, 4]: 1.5 h
concentration at 0 h [1, 5]: 571 ng/mL
concentration at 1 h [1, 5]: 1150 ng/mL
